Data reported in patent US20260262643A1, “HERBICIDAL BENZOXAZINES” (FMC CORPORATION, priority 2022, published 2026).

How the values were obtained:
barnyardgrass [1] = experiment: Test C preemergence; assay type: in vivo, Echinochloa crusgalli
Outline: (§1)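 Visual injury score, 0–100 (100 = complete control), taken 10 days after treatment relative to untreated controls. Pre: directed spray onto soil over sown seeds. Post: foliar spray at one- to two-leaf stage, 2–10 cm. Solvent/surfactant formulation; loam–sand soil; greenhouse.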

blackgrass [2] = experiment: Test C preemergence; assay type: in vivo, Alopecurus myosuroides
Outline: as §1

corn [3] = experiment: Test C preemergence; assay type: in vivo, Zea mays
Outline: as §1

green foxtail [4] = experiment: Test C preemergence; assay type: in vivo, Setaria viridis
Outline: as §1

kochia [5] = experiment: Test C preemergence; assay type: in vivo, Bassia scoparia
Outline: as §1

oat, wild [6] = experiment: Test C preemergence; assay type: in vivo, Avena fatua
Outline: as §1

pigweed, palmer [7] = experiment: Test C preemergence; assay type: in vivo, Amaranthus palmeri
Outline: as §1

ragweed [8] = experiment: Test C preemergence; assay type: in vivo, Ambrosia artemisiifolia
Outline: as §1

ryegrass, Italian [9] = experiment: Test C preemergence; assay type: in vivo, Lolium multiflorum
Outline: as §1

soybean [10] = experiment: Test C preemergence; assay type: in vivo, Glycine max
Outline: as §1

wheat [11] = experiment: Test C preemergence; assay type: in vivo, Triticum aestivum
Outline: as §1

barnyardgrass [12] = experiment: Test C postemergence; assay type: in vivo, Echinochloa crusgalli; conditions: 10 days, 0 to 100 scale (0 no effect, 100 complete control)
Outline: as §1

blackgrass [13] = experiment: Test C postemergence; assay type: in vivo, Alopecurus myosuroides; conditions: 10 days, 0 to 100 scale (0 no effect, 100 complete control)
Outline: as §1

corn [14] = experiment: Test C postemergence; assay type: in vivo, Zea mays; conditions: 10 days, 0 to 100 scale (0 no effect, 100 complete control)
Outline: as §1

green foxtail [15] = experiment: Test C postemergence; assay type: in vivo, Setaria viridis; conditions: 10 days, 0 to 100 scale (0 no effect, 100 complete control)
Outline: as §1

kochia [16] = experiment: Test C postemergence; assay type: in vivo, Bassia scoparia; conditions: 10 days, 0 to 100 scale (0 no effect, 100 complete control)
Outline: as §1

oat, wild [17] = experiment: Test C postemergence; assay type: in vivo, Avena fatua; conditions: 10 days, 0 to 100 scale (0 no effect, 100 complete control)
Outline: as §1

pigweed, palmer [18] = experiment: Test C postemergence; assay type: in vivo, Amaranthus palmeri; conditions: 10 days, 0 to 100 scale (0 no effect, 100 complete control)
Outline: as §1

ragweed [19] = experiment: Test C postemergence; assay type: in vivo, Ambrosia artemisiifolia; conditions: 10 days, 0 to 100 scale (0 no effect, 100 complete control)
Outline: as §1

ryegrass, Italian [20] = experiment: Test C postemergence; assay type: in vivo, Lolium multiflorum; conditions: 10 days, 0 to 100 scale (0 no effect, 100 complete control)
Outline: as §1

soybean [21] = experiment: Test C postemergence; assay type: in vivo, Glycine max; conditions: 10 days, 0 to 100 scale (0 no effect, 100 complete control)
Outline: as §1

wheat [22] = experiment: Test C postemergence; assay type: in vivo, Triticum aestivum; conditions: 10 days, 0 to 100 scale (0 no effect, 100 complete control)
Outline: as §1

galium = experiment: Test C postemergence; assay type: in vivo, Galium aparine; conditions: 10 days, 0 to 100 scale (0 no effect, 100 complete control)
Outline: as §1

horseweed = experiment: Test C postemergence; assay type: in vivo, Erigeron canadensis; conditions: 10 days, 0 to 100 scale (0 no effect, 100 complete control)
Outline: as §1

barnyardgrass [23] = experiment: Test D flooded paddy test; assay type: in vivo, Echinochloa crus-galli; conditions: 250 g ai/ha, applied to paddy water, visual rating after 13 to 14 days, scale 0 to 100 (0 no effect, 100 complete control)
Outline: (§2)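 Plants at the 2-leaf stage were grown in pots flooded to 3 cm, and compound was applied directly into the paddy water, with depth kept throughout. After 13–14 days in a greenhouse, injury was rated visually against untreated controls on a 0–100 scale (100 = complete control); a dash means not tested.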

ducksalad = experiment: Test D flooded paddy test; assay type: in vivo, Heteranthera limosa; conditions: 250 g ai/ha, applied to paddy water, visual rating after 13 to 14 days, scale 0 to 100 (0 no effect, 100 complete control)
Outline: as §2

rice = experiment: Test D flooded paddy test; assay type: in vivo, Oryza sativa; conditions: 250 g ai/ha, applied to paddy water, visual rating after 13 to 14 days, scale 0 to 100 (0 no effect, 100 complete control)
Outline: as §2

sedge, umbrella = experiment: Test D flooded paddy test; assay type: in vivo, Cyperus difformis; conditions: 250 g ai/ha, applied to paddy water, visual rating after 13 to 14 days, scale 0 to 100 (0 no effect, 100 complete control)
Outline: as §2

[24] = 500 g ai/ha, preemergence, 0 to 100 scale (0 no effect, 100 complete control)
[25] = Preemergence, 125 g ai/ha, 0 to 100 scale, 0 no effect, 100 complete control

Cc1cccc2c1O[C@@H](C)CN2C(=O)c1cc(-n2cnc(C(C)C)n2)cc2c1CCO2 [Compound 392]
65: Plant response rating, Ducksalad (Flood) (ducksalad) | Plant response rating, Sedge, Umbrella (Flood) (sedge, umbrella)
70: Plant response rating, Blackgrass (blackgrass [2]; [25]) | Corn plant response rating (corn [3]; [24]) | Plant response rating, Oat, Wild (oat, wild [17]; Postemergence, 125 g ai/ha)
60: Wheat plant response rating (wheat [11]; [24]) | Plant response rating, Foxtail, Green (green foxtail [15]; Postemergence, 125 g ai/ha) | Plant response rating, Wheat (wheat [22]; 500 g ai/ha, postemergence) | Plant response rating, Horseweed (horseweed; Postemergence, 125 g ai/ha)
80: Blackgrass plant response rating (blackgrass [2]; [24]) | Ragweed plant response rating (ragweed [8]; [24]) | Plant response rating, Ragweed (ragweed [8]; [25]) | Plant response rating, Barnyardgrass (barnyardgrass [12]; 500 g ai/ha, postemergence) | Plant response rating, Blackgrass (blackgrass [13]; Postemergence, 125 g ai/ha) | Plant response rating, Corn (corn [14]; 500 g ai/ha, postemergence) | Plant response rating, Ryegrass, Italian (ryegrass, Italian [20]; Postemergence, 125 g ai/ha)
20: Plant response rating, Wheat (wheat [11]; [25])
90: Plant response rating, Barnyardgrass (barnyardgrass [1]; [25]) | Kochia plant response rating (kochia [5]; [24]) | Plant response rating, Kochia (kochia [5]; [25]) | Oat, Wild plant response rating (oat, wild [6]; [24]) | Plant response rating, Ryegrass, Italian (ryegrass, Italian [9]; [25]) | Plant response rating, Soybean (soybean [10]; [25]) | Plant response rating, Blackgrass (blackgrass [13]; 500 g ai/ha, postemergence) | Plant response rating, Foxtail, Green (green foxtail [15]; 500 g ai/ha, postemergence) | Plant response rating, Kochia (kochia [16]; 500 g ai/ha, postemergence) | Plant response rating, Kochia (kochia [16]; Postemergence, 125 g ai/ha) | Plant response rating, Oat, Wild (oat, wild [17]; 500 g ai/ha, postemergence) | Plant response rating, Ragweed (ragweed [19]; 500 g ai/ha, postemergence) | Plant response rating, Ragweed (ragweed [19]; Postemergence, 125 g ai/ha) | Plant response rating, Horseweed (horseweed; 500 g ai/ha, postemergence)
30: Plant response rating, Corn (corn [3]; [25]) | Plant response rating, Corn (corn [14]; Postemergence, 125 g ai/ha)
100: Barnyardgrass plant response rating (barnyardgrass [1]; [24]) | Foxtail, Green plant response rating (green foxtail [4]; [24]) | Plant response rating, Foxtail, Green (green foxtail [4]; [25]) | Pigweed, Palmer plant response rating (pigweed, palmer [7]; [24]) | Plant response rating, Pigweed, Palmer (pigweed, palmer [7]; [25]) | Ryegrass, Italian plant response rating (ryegrass, Italian [9]; [24]) | Soybean plant response rating (soybean [10]; [24]) | Plant response rating, Pigweed, Palmer (pigweed, palmer [18]; 500 g ai/ha, postemergence) | Plant response rating, Pigweed, Palmer (pigweed, palmer [18]; Postemergence, 125 g ai/ha) | Plant response rating, Ryegrass, Italian (ryegrass, Italian [20]; 500 g ai/ha, postemergence) | Plant response rating, Soybean (soybean [21]; 500 g ai/ha, postemergence) | Plant response rating, Soybean (soybean [21]; Postemergence, 125 g ai/ha) | Plant response rating, Galium (galium; 500 g ai/ha, postemergence) | Plant response rating, Galium (galium; Postemergence, 125 g ai/ha)
0: Plant response rating, Rice (Flood) (rice)
40: Plant response rating, Barnyardgrass (Flood) (barnyardgrass [23])
50: Plant response rating, Oat, Wild (oat, wild [6]; [25]) | Plant response rating, Barnyardgrass (barnyardgrass [12]; Postemergence, 125 g ai/ha) | Plant response rating, Wheat (wheat [22]; Postemergence, 125 g ai/ha)
